Common to all, as to test: relative viability (nuclei count vs DMSO), 5 days (fraction); higher = more cells survive
Compound in the assay “XMD8-85 + Foretinib”: CN1CCN(CC1)C2=CC(=C(C=C2)NC3=NC=C4C(=N3)N(C5=CC=CC=C5C(=O)N4C)C)OC [XMD8-85] + COc1cc2c(Oc3ccc(NC(=O)C4(C(=O)Nc5ccc(F)cc5)CC4)cc3F)ccnc2cc1OCCCN1CCOCC1 [Foretinib] (partner 0.25 µM)
Summed up:
(§1)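 Relative viability equals treated-well nuclei counts divided by vehicle-well nuclei counts. Counts came from 4× images of lung cancer cell lines grown in 1536-well plates for 5 days after pin-tool dosing on the day after seeding. Dosing used one drug alone or a fixed anchor-drug dose plus five library-drug doses (not always all listed) in √10 steps, and values are medians of duplicate plates.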

Compound in the assay “XMD8-85 + Lapatinib”: CN1CCN(CC1)C2=CC(=C(C=C2)NC3=NC=C4C(=N3)N(C5=CC=CC=C5C(=O)N4C)C)OC [XMD8-85] + CS(=O)(=O)CCNCc1ccc(-c2ccc3ncnc(Nc4ccc(OCc5cccc(F)c5)c(Cl)c4)c3c2)o1 [Lapatinib] (partner 2 µM)
In a few lines: as §1

Compound in the assay “4EGI-1 + OSI-027”: O=C(O)C(Cc1ccccc1[N+](=O)[O-])=NNc1nc(-c2ccc(Cl)c(Cl)c2)cs1 (mixture of isomers) [4EGI-1] + COc1cccc2cc(-c3nc([C@H]4CC[C@H](C(=O)O)CC4)n4ncnc(N)c34)[nH]c12 [OSI-027] (partner 0.5 µM)
Summed up:
as §1

NCI-H661: the relative viability was determined as 1.16 in the assay with XMD8-85 + Foretinib (first compound 0.08 µM); 1.09 with XMD8-85 + Foretinib (first compound 0.253 µM); 0.989 with XMD8-85 + Foretinib (first compound 0.8 µM); 1.07 with XMD8-85 + Foretinib (first compound 2.53 µM); 0.91 in the assay with XMD8-85 + Foretinib (first compound 8 µM); 0.486 with XMD8-85 + Lapatinib (first compound 0.08 µM). In addition, the relative viability in the assay with XMD8-85 + Lapatinib (first compound 0.253 µM) amounted to 0.485; in the assay with XMD8-85 + Lapatinib (first compound 0.8 µM) it was 0.404; with XMD8-85 + Lapatinib (first compound 8 µM) it was 0.473; with 4EGI-1 + OSI-027 (first compound 0.5 µM), 0.713; in the assay with 4EGI-1 + OSI-027 (first compound 1.581 µM) it was 0.583; with 4EGI-1 + OSI-027 (first compound 5 µM) it was 0.649. The values for the relative viability with 4EGI-1 + OSI-027 (first compound 15.81 µM) and with 4EGI-1 + OSI-027 (first compound 50 µM) were 0.383 and 0.245, respectively.

Regarding UMC-11, the relative viability came to 1.17 with XMD8-85 + Foretinib (first compound 0.08 µM); 0.949 with XMD8-85 + Foretinib (first compound 0.253 µM); 1.21 with XMD8-85 + Foretinib (first compound 0.8 µM); 0.913 with XMD8-85 + Foretinib (first compound 2.53 µM); 0.651 with XMD8-85 + Foretinib (first compound 8 µM); 0.835 in the assay with XMD8-85 + Lapatinib (first compound 0.08 µM). Moreover, the relative viability turned out to be 0.853 with XMD8-85 + Lapatinib (first compound 0.253 µM); 1.17 in the assay with XMD8-85 + Lapatinib (first compound 0.8 µM); 0.976 in the assay with XMD8-85 + Lapatinib (first compound 2.53 µM); 0.724 with XMD8-85 + Lapatinib (first compound 8 µM); 0.465 in the assay with 4EGI-1 + OSI-027 (first compound 0.5 µM); 0.526 with 4EGI-1 + OSI-027 (first compound 1.581 µM). Also, the relative viability is 0.507 with 4EGI-1 + OSI-027 (first compound 5 µM), 0.484 with 4EGI-1 + OSI-027 (first compound 15.81 µM) and 0.284 with 4EGI-1 + OSI-027 (first compound 50 µM).

For the cell line NCI-H1623, the relative viability was 0.986 in the assay with XMD8-85 + Foretinib (first compound 0.08 µM); 0.816 in the assay with XMD8-85 + Foretinib (first compound 0.253 µM); 0.789 with XMD8-85 + Foretinib (first compound 0.8 µM); 0.857 in the assay with XMD8-85 + Foretinib (first compound 2.53 µM); 0.667 with XMD8-85 + Foretinib (first compound 8 µM); 0.457 in the assay with 4EGI-1 + OSI-027 (first compound 0.5 µM). Moreover, the relative viability with 4EGI-1 + OSI-027 (first compound 1.581 µM) came out at 0.418; with 4EGI-1 + OSI-027 (first compound 5 µM), 0.475; with 4EGI-1 + OSI-027 (first compound 15.81 µM), 0.324; in the assay with 4EGI-1 + OSI-027 (first compound 50 µM) it was 0.382.

Consider Calu-6, for which the relative viability in the assay with XMD8-85 + Foretinib (first compound 0.08 µM) was 0.858; in the assay with XMD8-85 + Foretinib (first compound 0.253 µM) it was 0.948; with XMD8-85 + Foretinib (first compound 0.8 µM), 0.879; in the assay with XMD8-85 + Foretinib (first compound 2.53 µM), 0.804; with XMD8-85 + Foretinib (first compound 8 µM), 0.674; with XMD8-85 + Lapatinib (first compound 0.08 µM) it was 1.02. Moreover, the relative viability was found to be 1.09 with XMD8-85 + Lapatinib (first compound 0.253 µM), 1.11 with XMD8-85 + Lapatinib (first compound 0.8 µM), 1.03 with XMD8-85 + Lapatinib (first compound 2.53 µM) and 0.899 with XMD8-85 + Lapatinib (first compound 8 µM).

Regarding NCI-H1563, the relative viability was 1.05 in the assay with XMD8-85 + Foretinib (first compound 0.08 µM); 0.935 with XMD8-85 + Foretinib (first compound 0.253 µM); 0.836 in the assay with XMD8-85 + Foretinib (first compound 0.8 µM); 0.892 in the assay with XMD8-85 + Foretinib (first compound 2.53 µM); 0.767 with XMD8-85 + Foretinib (first compound 8 µM); 1.04 with XMD8-85 + Lapatinib (first compound 0.08 µM). In addition, the relative viability came to 0.87 in the assay with XMD8-85 + Lapatinib (first compound 0.253 µM); 1.01 with XMD8-85 + Lapatinib (first compound 0.8 µM); 0.822 with XMD8-85 + Lapatinib (first compound 2.53 µM); 0.7 with XMD8-85 + Lapatinib (first compound 8 µM); 0.788 with 4EGI-1 + OSI-027 (first compound 0.5 µM); 0.752 with 4EGI-1 + OSI-027 (first compound 1.581 µM). Further, the relative viability in the assay with 4EGI-1 + OSI-027 (first compound 5 µM) came out at 0.85; with 4EGI-1 + OSI-027 (first compound 15.81 µM) it was 0.736; with 4EGI-1 + OSI-027 (first compound 50 µM), 0.665.

A549: the relative viability was 1.02 with XMD8-85 + Foretinib (first compound 0.08 µM); 0.869 in the assay with XMD8-85 + Foretinib (first compound 0.253 µM); 1.11 with XMD8-85 + Foretinib (first compound 0.8 µM); 1.05 with XMD8-85 + Foretinib (first compound 2.53 µM); 0.913 with XMD8-85 + Foretinib (first compound 8 µM); 1.08 in the assay with XMD8-85 + Lapatinib (first compound 0.08 µM). The relative viability is 0.974 with XMD8-85 + Lapatinib (first compound 0.253 µM), 1.06 with XMD8-85 + Lapatinib (first compound 0.8 µM), 1.03 in the assay with XMD8-85 + Lapatinib (first compound 2.53 µM) and 0.869 in the assay with XMD8-85 + Lapatinib (first compound 8 µM).

(Values after the supplement of paper PMC10307832.)
